From a melting point compilation (Tetko et al.)

Row | melting point [°C] | SMILES
1 | 157 | O=C(O)COc1ccc(I)cc1
2 | 77 | Brc1ccc(-c2cccnc2)nc1
3 | 107 to 108 | CC(=O)CCc1oc2c(Br)cc(Br)cc2c1-c1ccc(C)o1
4 | 210 to 212 | NS(=O)(=O)c1ccc(N=C=S)cc1
5 | 156 to 161 | O=C(O)COc1ccc(Br)cc1
6 | 56 to 58 | S=C=Nc1ccccc1N=C=S
7 | 139 | CCOC(=O)C=Cc1ccc([N+](=O)[O-])cc1
8 | 213 to 219 | CS(=O)(=O)c1ccc(C(C=O)C=O)c([N+](=O)[O-])c1
9 | 32 | N#Cc1ccnc(F)c1
10 | 175 to 177 | O=C(C=Cc1ccc(Cl)c(Cl)c1)C=Cc1ccc(Cl)c(Cl)c1
11 | 56 | Nc1ccc(C(F)(F)F)c(F)c1
12 | 212 | CC(C)(S)C(N)C(=O)O (stereo unspecified)
13 | 60 to 63 | N#CCc1ccc(Cl)cc1Cl
14 | 92 | Cc1oc(C(C)(C)C)cc1C(=O)O
15 | 116 to 120 | CNC(=C[N+](=O)[O-])OC
16 | 72 | COc1ccccc1NC(=O)c1cncc(Cl)n1
17 | 62 | NNc1ccc(C(F)(F)F)cc1
18 | 213 to 214 | O=C1OC(=O)C2=C1SCCS2
19 | 155 to 156 | CCOC(=O)CON=C(c1cc2ccccc2o1)C1CC(C)(c2ccccc2)C1 (stereo unspecified)
20 | 98 | Cc1c(C)n(C(=O)c2ccccc2)c2ccccc12
21 | 201 to 202 | CN(N)c1c(N(C)N)c(=O)c1=O
22 | 233 | O=C1NN(c2ccccc2)C(=O)C1c1ccccc1 (stereo unspecified)
23 | 22 | CCCCCCCCCCCCCCCc1ccccc1

Row | melting point [°C] | SMILES
24 | 14 | CC(C)(C)C(Br)Br
25 | 207 | CN(C1=NC(=Cc2ccccc2)C(=O)N1c1ccccc1)c1ccccc1
26 | 151 | COc1ccc(N)c(C(=O)O)c1
27 | 84.2 | CCCCCCCCCCCCCCCCCCCCCCCC(=O)O
28 | 190 | Clc1cc2c(oc3c(Cl)cccc32)c(Cl)c1Cl
29 | 203 | c1ccc2c(c1)-c1nc3ccccc3nc1-2
30 | 109 to 112 | CC(C)(C)OC(=O)NCCC(N)=S
31 | -100 | CC/C=C/Br
32 | 271 to 272 | Cn1c(=S)[nH]c2ccccc2c1=O
33 | 75 | CC1CCC(C(C)C)C(OC(=O)c2ccc(C(=O)OC3CC(C)CCC3C(C)C)cc2)C1 (stereo unspecified)
34 | 191 to 193 | Nc1nc2ccccc2n1Cc1ccc(F)cc1
35 | 97 | CC(C)CCCC(C)C1CCC2C3CC=C4CC(Cl)CCC4(C)C3CCC12C (stereo unspecified)
36 | 86 | COc1c(C)c(C)c(OC)c(C=O)c1C
37 | 63 | CN1CCN(c2ncc(Br)c(OCc3ccccc3)n2)CC1
38 | 238 to 239 | Cn1c(SCC(=O)O)nnc1-c1ccc2ncccc2c1
39 | 135 | CCOC(=O)NNC(=O)OCC
40 | 79.3 | CN(C)C(=S)N(C)C
41 | 76 to 78 | CN(C(=S)Cl)c1ccc(Cl)cc1
42 | 82 to 84 | CC(C)OC(=O)Cc1csc(-c2ccc(Cl)cc2)n1
43 | 119 to 123 | FC(F)(F)c1cc(Cl)c2cc(CBr)ccc2n1
44 | 160 | CC(C=CC1(O)C(C)=CC(=O)CC1(C)C)=CC(=O)O (stereo unspecified)
45 | 47 | OC(c1ccc(F)cc1)c1ccc(F)cc1
46 | 209 | O=C1C=C(NCc2cccnc2)C(=O)c2ccccc21

Row | melting point [°C] | SMILES
47 | 78.5 | CNS(=O)(=O)c1ccc(C)cc1
48 | 187 to 189 | O=S(=O)(c1ccc(N=C=S)cc1)c1ccc(N=C=S)cc1
49 | 78 to 86 | O=C1CC[C@@H](CO)N1
50 | 90 to 92 | O=Cc1ccc2nsnc2c1
51 | 175 | Nc1cc(N)c(/C=C/c2ccccc2)c([N+](=O)[O-])c1C=Cc1ccccc1
52 | -70 | CCc1ccc2c(c1)CCCC2
53 | -37 | O=C(OCC1CCC2OC2C1)C1CCC2OC2C1 (stereo unspecified)
54 | 132 | CC(CCc1oc2ccc(Br)cc2c1-c1ccc(C)o1)=NO
55 | 120 to 122 | CCOC(=O)c1c(NC(=O)C(Cl)Cl)sc2c1CCCC2
56 | -98 | COC(C)=O
57 | 74 | O=C(O)CCCCc1ccc(F)cc1
58 | 154 to 155 | COC(=O)c1ccc2c(I)cn(C(=O)OC(C)(C)C)c2c1
59 | 60 | COc1cc([N+](=O)[O-])ccc1N1CCCC1
60 | 280 | Cc1ccc(C=C2C(=O)NN=C2c2c(O)c3ccccc3n(C)c2=O)cc1
61 | 41 to 46 | COc1ccc(F)cc1C=O
62 | 218 to 221 | CN(CC(=O)O)CC(=O)O
63 | 124 | CCN(CC)CCNC(=O)c1cc(S(C)(=O)=O)ccc1OC
64 | 175 | CC(C)=CCCC(C)=CC=CC(C)=CC=CC(C)=CC=CC=C(C)C=CC=C(C)C=CC=C(C)CCC=C(C)C
65 | 88 to 90 | C=CC[Si](c1ccccc1)(c1ccccc1)c1ccccc1
66 | 26 | CCCc1cccc(O)c1
67 | 180 to 182 | O=C1CCC(c2ccccc2)=NN1c1n[nH]c(=S)n1-c1ccccc1
68 | 85 to 89 | Cn1nc(C(F)(F)F)c(-c2ccccc2)c1N
69 | 86 to 88 | Brc1cccc(N2CCCC2)n1

Row | melting point [°C] | SMILES
70 | 302 | c1ccc2nc(-c3cc(-c4cnc5ccccc5n4)cc(-c4cnc5ccccc5n4)c3)cnc2c1
71 | 281 to 284 | O=C(O)c1cc(C(=O)O)c(C(=O)O)cc1C(=O)O
72 | 268 to 270 | CC1=CC2(C)C3C(=O)OC(=O)C3C1C1C(=O)OC(=O)C12 (stereo unspecified)
73 | 39 | CCc1ccc(O)c(O)c1
74 | 53 | O=[N+]([O-])c1cc(S(=O)(=O)Cl)sc1Cl
75 | 95.3 | CC(C)C(O)(c1ccc(OC(F)(F)F)cc1)c1cncnc1 (stereo unspecified)
76 | 29 | CCOC(=O)c1cccc(N)c1
77 | 158 to 160 | CC1OC(=O)C(C)C1CC(O)C(C)(O)C1CCC2(O)C3=CC(=O)C4CC(O)C(O)CC4(C)C3CCC12C (stereo unspecified)
78 | 230 | COC(=O)C1C2CC3c4[nH]c5ccccc5c4CCN3CC2CC(OC(=O)c2cc(OC)c(OC)c(OC)c2)C1OC (stereo unspecified)
79 | 18.3 | Cc1c(N=C=O)cccc1N=C=O
80 | 52 to 54 | CC(=O)CS(=O)(=O)c1ccc(C)cc1
81 | -43 | CCOC(=O)OCC
82 | 111 to 112 | Nc1ccccc1NC1CCN(Cc2ccccc2)CC1
83 | 87 to 89 | O=C(c1ccc(F)cc1)c1ccc([N+](=O)[O-])cc1
84 | 119 | COc1cc(/C=C/C(=O)c2ccc3ccccc3c2)cc(OC)c1OC
85 | 276 | O=C1NN(c2ccccc2)C(=O)C1=CNc1ccccc1
86 | 77 to 79 | N#Cc1cccc2c1-c1ccccc1C2
87 | 270 to 271 | O=C1C(=C2C=Cc3cc(-c4ccccc4)ccc3N2)C(=O)c2ccccc21
88 | 82 to 83 | O=C1Cc2ccccc2CO1
89 | 161 | CCCSc1ncccc1C(=O)O
90 | 60 to 75 | CCCCC(C=O)NC(=O)C(CC(C)C)NC(=O)OCc1ccccc1 (stereo unspecified)
91 | 86 | CC1=C(C(=O)OCc2ccccc2)C(c2ccccc2)N(C)C(=O)N1C (stereo unspecified)
92 | 134 | Cc1c(N(C)C)c(=O)n(-c2ccccc2)n1C

Row | melting point [°C] | SMILES
93 | 179 to 180 | CCc1c(C)nc(NC(=O)NS(=O)(=O)c2cccs2)nc1O
94 | 47 | CCN(CC)C(=O)c1ccccc1CC(=O)c1ccccc1C
95 | 73 to 75 | COC(=O)c1ccc[nH]1
96 | 204 | Cc1cc(Br)c(N)c(C(=O)O)c1
97 | 184 | CCCCC(=O)OC1(C(=O)CO)C(C)CC2C3CCC4=CC(=O)C=CC4(C)C3(F)C(O)CC21C (stereo unspecified)
98 | 146 | Nc1c(F)c(F)c(-c2c(F)c(F)c(F)c(F)c2F)c(F)c1F
99 | 205 to 206 | CC(C)(C)c1cc(C(C)(C)C)c([N+](=O)[O-])c(C(C)(C)C)c1
100 | 191 to 194 | NCCSS(=O)(=O)O
101 | 200 to 201 | CC(=O)N(C)c1cccc(-c2ccc3nnc(C)n3n2)c1
102 | 18 | CC1=CCC(=O)O1
103 | 172 to 174 | CC(=O)C1=C(C)C(C)(O)NC1=O (stereo unspecified)
104 | 194 | Cc1c(C)c(CCl)c(C)c(C)c1CCl
105 | 53 to 57 | CCCCCCCCCCCCCCCC(=O)Oc1c[nH]c2ccc(Br)c(Cl)c12
106 | -50.2 | CCCCCCCOC(C)=O
107 | 249 | O=C1OC(=O)c2cc3ccccc3cc21
108 | 61 | COC(=O)c1ccc(C2(C)C=CC=CC=C2)cc1
109 | 300 | O=C(O)[C@@H]1Cc2ccccc2CN1
110 | 72 | CCCCCCCCCCCCCCCC(=O)OCCOC(=O)CCCCCCCCCCCCCCC
111 | 35 to 43 | C=Cc1ccc2c(c1)OCCOCCOCCOCCO2
112 | 87 | O=C1OC2(CCCCC2)OC1c1ccccc1 (stereo unspecified)

Row | SMILES | melting point [°C]
113 | O=[N+]([O-])c1ccc(NS(=O)(=O)c2ccc(Cl)c(C(F)(F)F)c2)c(Cl)c1 | 170
114 | ClCC(Br)CBr (stereo unspecified) | 6
115 | C1CN2CCN3CCN1C23 | -14.7
116 | O=S(=O)(Cl)c1sccc1Br | 39 to 41.5
117 | COc1ccccc1-c1ccc(C=C2C(=O)NC(=O)NC2=O)o1 | 220
118 | Clc1cc2c(c(Cl)c1Cl)Oc1cc(Cl)c(Cl)c(Cl)c1O2 | 285
119 | COc1cc(C=O)cc(OC)c1OC | 75
120 | O=[N+]([O-])c1cc(-c2ccccc2)ccc1O | 67
121 | O=[N+]([O-])CCO | -80
122 | CC(=O)Oc1ccc(Cl)cc1 | 9
123 | C=CC1CN2CCC1CC2C(=O)c1ccnc2ccc(OC)cc12 (stereo unspecified) | 108
124 | Nc1cc(Cl)c2nonc2c1[N+](=O)[O-] | 276 to 277
125 | CCC(C)(CC)c1cc(NC(=O)c2c(OC)cccc2OC)on1 | 178
126 | CC(C)C(Nc1ccc(C(F)(F)F)cc1Cl)C(=O)OC(C#N)c1cccc(Oc2ccccc2)c1 (stereo unspecified) | 25
